These results are taken from ChEMBL document CHEMBL5120900, “Structure-Based Discovery of a Series of NSD2-PWWP1 Inhibitors” (J Med Chem, 2022).

pIC50: −log10 of the molar value. Calls of active or inactive are those of the source. The calls are words filed in the database; no cut-off is given here.

In assay [1] the target is T1, Histone-lysine N-methyltransferase NSD2 (Homo sapiens) (UniProt O96028).
T1 sequence (whole entry): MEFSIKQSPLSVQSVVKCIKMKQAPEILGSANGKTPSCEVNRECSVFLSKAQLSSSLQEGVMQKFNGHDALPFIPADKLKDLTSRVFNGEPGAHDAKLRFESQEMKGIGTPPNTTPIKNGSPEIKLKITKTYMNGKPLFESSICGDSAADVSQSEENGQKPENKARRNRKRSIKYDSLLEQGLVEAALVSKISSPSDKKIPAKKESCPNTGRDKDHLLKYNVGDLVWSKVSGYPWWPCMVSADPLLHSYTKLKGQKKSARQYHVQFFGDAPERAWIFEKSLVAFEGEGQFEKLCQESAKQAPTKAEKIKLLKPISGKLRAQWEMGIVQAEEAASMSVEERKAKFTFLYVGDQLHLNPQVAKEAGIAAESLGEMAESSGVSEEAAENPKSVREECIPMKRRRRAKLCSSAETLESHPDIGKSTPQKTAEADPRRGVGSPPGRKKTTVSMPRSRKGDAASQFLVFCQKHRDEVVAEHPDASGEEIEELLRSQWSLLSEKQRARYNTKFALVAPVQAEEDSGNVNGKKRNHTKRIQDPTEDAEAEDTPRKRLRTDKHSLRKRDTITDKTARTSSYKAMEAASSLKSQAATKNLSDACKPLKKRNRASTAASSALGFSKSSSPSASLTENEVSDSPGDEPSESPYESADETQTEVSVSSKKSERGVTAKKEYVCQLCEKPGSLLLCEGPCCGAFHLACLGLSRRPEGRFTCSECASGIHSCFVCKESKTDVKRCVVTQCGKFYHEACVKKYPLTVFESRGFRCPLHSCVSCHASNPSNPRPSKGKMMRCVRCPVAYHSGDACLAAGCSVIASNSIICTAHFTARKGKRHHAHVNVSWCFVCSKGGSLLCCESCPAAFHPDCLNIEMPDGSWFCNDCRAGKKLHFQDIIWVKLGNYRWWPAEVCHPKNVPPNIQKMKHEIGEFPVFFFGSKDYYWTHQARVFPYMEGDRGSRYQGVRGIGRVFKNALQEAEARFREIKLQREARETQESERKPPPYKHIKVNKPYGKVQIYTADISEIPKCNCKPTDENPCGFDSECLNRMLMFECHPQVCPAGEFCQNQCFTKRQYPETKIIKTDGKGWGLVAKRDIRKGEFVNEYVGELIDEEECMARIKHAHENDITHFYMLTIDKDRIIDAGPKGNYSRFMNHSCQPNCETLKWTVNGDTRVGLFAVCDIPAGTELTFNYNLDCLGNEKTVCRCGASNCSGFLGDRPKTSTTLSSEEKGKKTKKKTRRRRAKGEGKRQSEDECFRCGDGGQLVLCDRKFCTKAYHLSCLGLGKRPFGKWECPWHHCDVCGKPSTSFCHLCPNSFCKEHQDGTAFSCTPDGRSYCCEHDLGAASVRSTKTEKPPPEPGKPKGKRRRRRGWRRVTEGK
Nature of the assay: Inhibition of NSD2 in human RS4-11 cells assessed as decrease in RRAS2 gene expression at 10 uM incubated for 72 hrs by RT-PCR analysis. Format: cell-based.

For another assay, the system named is KMS-11. The assay can be described thus: Induction of apoptosis in human KMS-11 cells assessed as late apoptotic cells at 10 uM measured after 72 hrs by Annexin V FITC/PI staining based flow cytometry analysis (reference value: 13.3 %). The assay is classed as functional. For orientation: In flow cytometry, cells or beads pass a laser one at a time.
In a further assay the test system is MM1.S. Nature of the assay: Antiproliferative activity against human MM1.S cells assessed as inhibition of cell proliferation measured after 6 days by CCK8 assay. The settings on record: 144 h. The assay is classed as functional, cell-based. A general note: Tetrazolium assays rely on reduction of a dye to a coloured formazan, in cell work by metabolically active cells.

Assay [2] deals with MV4-11. Nature of the assay: Induction of apoptosis in human MV4-11 cells assessed as late apoptotic cells at 5 uM measured after 72 hrs by Annexin V FITC/PI staining based flow cytometry analysis (reference value: 3.02%). Format: functional.
In assay [3] the target is T1, Histone-lysine N-methyltransferase NSD2 (Homo sapiens). The assay can be described thus: Inhibition of NSD2 in human RS4-11 cells assessed as decrease in TGFA gene expression at 10 uM incubated for 72 hrs by RT-PCR analysis. Format: cell-based.
For assay [4] the target is unchanged. Nature of the assay: Inhibition of NSD2 in human KMS-11 cells assessed as decrease in PAK1 gene expression at 10 uM incubated for 72 hrs by RT-PCR analysis. Format: cell-based.
The test system of assay [5] is MV4-11. Nature of the assay: Cell cycle arrest in human MV4-11 cells assessed as increase in accumulation of G0/G1 phase at 5 to 10 uM measured after 24 hrs by PI staining based flow cytometric analysis. Format: functional. The settings on record: dose 5-10 µM.
In assay [6] the target is T2, Histone-lysine N-methyltransferase NSD2 (Homo sapiens, UniProt O96028).
T2 sequence (O96028 whole entry): T1 sequence (whole entry)
Nature of the assay: Binding affinity to N-terminal His6/Sumo-tagged NSD2 PWWP1 domain (211 to 350 residues) (unknown origin) expressed in Escherichia coli BL21 (DE3) using ATKAARKSAPATGGV-Lys (me)2-KPHRYRPG polypeptide as substrate incubated for 3 hrs by HTRF assay. (In general: TR-FRET usually uses a lanthanide donor and a delayed reading to cut background.)

Assay [7] deals with MV4-11. Nature of the assay: Induction of apoptosis in human MV4-11 cells assessed as late apoptotic cells at 10 uM measured after 72 hrs by Annexin V FITC/PI staining based flow cytometry analysis (reference value: 3.02%). Format: functional.
Assay [8] addresses T1, Histone-lysine N-methyltransferase NSD2 (Homo sapiens). The assay can be described thus: Inhibition of NSD2 in human KMS-11 cells assessed as decrease in RRAS2 gene expression at 10 uM incubated for 72 hrs by RT-PCR analysis. The assay is classed as cell-based.
The target is the same in assay [9]. Nature of the assay: Inhibition of NSD2 in human KMS-11 cells assessed as decrease in TGFA gene expression at 10 uM incubated for 72 hrs by RT-PCR analysis. Format: cell-based.
Assay [10] has the same target. The assay can be described thus: Inhibition of NSD2 in human RS4-11 cells assessed as decrease in PAK1 gene expression at 10 uM incubated for 72 hrs by RT-PCR analysis. Format: cell-based.
The test system of assay [11] is MV4-11. The assay can be described thus: Induction of apoptosis in human MV4-11 cells assessed as viable cells at 5 uM measured after 72 hrs by Annexin V FITC/PI staining based flow cytometry analysis (reference value: 91.7%). The assay is classed as functional. The settings on record: read-out: Activity.
The target of assay [12] is T1, Histone-lysine N-methyltransferase NSD2 (Homo sapiens). The assay can be described thus: Binding affinity to His6/Sumo-tagged NSD2 PWWP1 (unknown origin) (208 to 368 residues) expressed in Escherichia coli BL21 (DE3) assessed as increase in melting temperature by thermal shift assay. The following applies: DDE = dose-dependent effect.
For assay [13], the system named is MV4-11. Nature of the assay: Induction of apoptosis in human MV4-11 cells assessed as early apoptotic cells at 10 uM measured after 72 hrs by Annexin V FITC/PI staining based flow cytometry analysis (reference value: 4.58 %). Format: functional.

For `Cc1cc(CN2CCC(N)CC2)cc(C)c1-c1ncn(C)c1-c1ccc(C#N)c2ccccc12`, the inhibition result in [1], in assay [3], in assay [4], in assay [8], in [9] and in assay [10] was “Active” each time. Further, the Activity was 32.7% in the assay with KMS-11; 2.37% in the assay with MV4-11 [2]; 19.8% in the assay on MV4-11 [7]; “Dde” in assay [12]; 41.3% in the assay on MV4-11 [13]. Further, the pIC50 (commonly −log10 of the IC50, conventionally taken in molar units) was 4.96 in the assay on MM1.S and 6.96 in assay [6]. Moreover, in the assay with MV4-11 [5], the result was Active. For the same molecule, the viability at 5 µM with MV4-11 [11] worked out at 91%.
